Experimental data taken from patent publication US10105372B2, “Methods of treating obesity using antioxidant inflammation modulators” (REATA PHARMACEUTICALS, INC., priority 2010, dated 2018).
Marks after values point to notes of the source that are not given here.

What was measured:
[1] = system: Nrf2; assay: Nrf2 activity in blood cells in clinical trials; format: in vivo, human; settings: at therapeutic doses
Source text: One AIM, bardoxolone methyl (BARD), is in advanced clinical trials for the treatment of chronic kidney disease.

[2] = 12-month toxicity study, whole blood exposure; format: in vivo, cynomolgus monkeys; settings: Days 1 and 28; 30, 100 and 300 mg/kg/day oral gavage
Method: All the animals were healthy and within normal weights for their age at the start of the study. The dose levels were 0, 30/5, 100/30, and 300 mg/kg/day and administered at a dose volume of 3 mL per dose. The control group received the vehicle in the same manner as the treated groups. Just prior to administration, the test article for each animal was added to the syringe containing the vehicle for each animal and vortexed until thoroughly mixed to achieved the desired concentrations of 30, 100, and 300 mg/mL through Day 42 (Week 6). During administration, the syringe containing the test article preparation for each animal was pushed through the gavage tube. The 1 mL vehicle rinse was then added to the dosing syringe and administered. After administration of both volumes, a 5 mL flush of the vehicle was used to rinse the gavage tube and ensure that the entire amount of the test article was administered to the animal. […] Therefore, dose levels were adjusted so that different blood exposures could be examined. During Week 7 dosing for all animals was stopped for four days (Days 43 to 46). The initial dose levels of 30 and 100 mg/kg/day were reduced to 5 and 30 mg/kg/day, respectively, and dosing was resumed on Day 47 through Day 353. Individual doses were based on the most recent body weights.

[3] = Phase 2 clinical trial, renal function, glycemic control, circulating endothelial cells; format: in vivo, human
Source text: See U.S. Patent Application Publication 2009/0326063A1, which is incorporated by reference herein in its entirety. […] In this study, the protocol stipulated that patient weights were to be taken at baseline (D−1=1 day before initiation of dosing), Day 28, and Day 56. Weight data were available for all but one patient who started the study (a baseline weight was not recorded for this patient). In the remaining patients, 14 of 17 had lost weight at Day 28 (mean weight loss was 1.6% of baseline weight) and 17 of 17 had lost weight at Day 56 (mean weight loss was 3.7% of baseline, with a median of 3.1%). […] Prior to initiation of treatment, basic clinical observations (e.g., weight, blood pressure, height) were recorded along with baseline values for serum creatinine, blood urea nitrogen, serum phosphorus, serum uric acid, angiotensin II, fasting glucose, hemoglobin A1c, circulating endothelial cells (CECs), and iNOS-positive CECs. […] Reductions of more than 10% were also observed in BUN, serum creatinine, uric acid, and urinary albumin creatinine ratio.

[4] = Stratum 2, All Patients (n = 18), change

COC(=O)[C@]12CCC(C)(C)C[C@H]1[C@H]1C(=O)C=C3[C@@]4(C)C=C(C#N)C(=O)C(C)(C)[C@@H]4CC[C@@]3(C)[C@]1(C)CC2 [bardoxolone methyl]
Nrf2 activity in blood cells [1]: induces Nrf2 activity | exposure in whole blood samples [2]: no significant differences in exposure across the three dose levels | CECs ([3]; Phase 2 study): Significant reductions | iNOS-positive CECs ([3]; Phase 2 study): Significant reductions | reduction in BUN ([3]; Phase 2 study): more than 10% | reduction in serum creatinine ([3]; Phase 2 study): more than 10% | reduction in uric acid ([3]; Phase 2 study): more than 10% | Patients with eGFR Increase ([3]; Stratum 2, All Patients (n = 18)): 89% | Blood Urea Nitrogen [3, 4]: −14.9% | Circulating Endothelial Cells [3, 4]: −34.8%^† | Creatinine Clearance [3, 4]: +38.2%^† | Phosphorus [3, 4]: −2.5% | Serum Creatinine [3, 4]: −17.5%** | Uric Acid [3, 4]: −13.3%^† | eGFR [3, 4]: +24.1%*** | iNOS+ Circulating Endothelial Cells [3, 4]: −65.8%* | Hemoglobin A1c ([3]; Stratum 2, patients with BL ≥ 7.0%, change): −0.1% | eGFR increase ([3]; after 28 days of treatment): approximately 10% | eGFR increase compared to baseline ([3]; after 56 days of treatment): more than 20%
